This test relates to HT-29. Nature of the test: Inhibition of Wnt pathway in human HT29 cells after 24 hrs by TCF-driven luciferase reporter gene assay. The format is cell-based. Particulars: HT-29, 24 h. (Reporter assays use an easily measured gene product as a stand-in for the process of interest.)

A value given as a limit tells only on which side of the number the result lay.

As a reminder, the IC50 is the point on the concentration scale where inhibition reaches its midpoint. The low end stands for higher potency, the high end for lower potency. Compound `O=C(Nc1ccccc1F)C1CCN(c2ccnc3nsnc23)CC1` displayed an IC50 below 5000 nM.
The value for `O=C(Nc1ccc(C(F)(F)F)cn1)C1CCN(c2ccnc3nsnc23)CC1` was below 50 nM; that for `Cc1ccccc1CNC(=O)C1CCN(c2ccnc3nsnc23)CC1` was below 100 nM.
The value for `c1ccc(N2C[C@@H]3C[C@H]2CN3c2ccnc3nsnc23)cc1` was below 50 nM.
For the compound `O=C(Nc1cc2ccccc2cn1)C1CCN(c2ccnc3nsnc23)CC1`, the IC50 was below 500 nM.
The value for `c1ccc(N2C[C@@H]3C[C@H]2CN3c2ncnc3nsnc23)nc1` was below 1000 nM.

Values taken from ChEMBL document CHEMBL3352081, “Wnt/β-Catenin Signaling Pathway Inhibitors: A Promising Cancer Therapy” (ACS Med Chem Lett, 2014).
